Test results: PubChem BioAssay AID1963843 (Molecular Pharmacology Branch, DTP, NCI, 2024)

System: 616215-338-R-J1-PDC complex spheroid viability
Test: Anticancer human tumor 616215-338-R-J1-PDC patient-derived colon adenocarcinoma cell line growth inhibition [POLQ]
Details: for IC50: curve of first compound; for viability, T/C: stronger effect = lower value
Summary of the method: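 Three-cell-type spheroids modelling solid tumor plus stroma served as the readout system; POL inhibitors were tested individually and in combination, concentration ranges set by clinical Cmax where known.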

[1] = second compound 0.0316 µM, first compound 0.0316 µM
[2] = second compound 0.0316 µM, first compound 0.1 µM
[3] = second compound 0.0316 µM, first compound 0.316 µM
[4] = second compound 0.0316 µM, first compound 1 µM
[5] = second compound 0.0316 µM, first compound 3.16 µM
[6] = second compound 0.0316 µM, first compound 10 µM
[7] = second compound 0.1 µM, first compound 0.0316 µM
[8] = second compound 0.1 µM, first compound 0.1 µM
[9] = second compound 0.1 µM, first compound 0.316 µM
[10] = second compound 0.1 µM, first compound 1 µM
[11] = second compound 0.1 µM, first compound 3.16 µM
[12] = second compound 0.1 µM, first compound 10 µM
[13] = second compound 0.316 µM, first compound 0.0316 µM
[14] = second compound 0.316 µM, first compound 0.1 µM
[15] = second compound 0.316 µM, first compound 0.316 µM
[16] = second compound 0.316 µM, first compound 1 µM
[17] = second compound 0.316 µM, first compound 3.16 µM
[18] = second compound 0.316 µM, first compound 10 µM
[19] = second compound 1 µM, first compound 0.0316 µM
[20] = second compound 1 µM, first compound 0.1 µM
[21] = second compound 1 µM, first compound 0.316 µM
[22] = second compound 1 µM, first compound 1 µM
[23] = second compound 1 µM, first compound 3.16 µM
[24] = second compound 1 µM, first compound 10 µM
[25] = second compound 3.16 µM, first compound 0.0316 µM
[26] = second compound 3.16 µM, first compound 0.1 µM
[27] = second compound 3.16 µM, first compound 0.316 µM
[28] = second compound 3.16 µM, first compound 1 µM
[29] = second compound 3.16 µM, first compound 3.16 µM
[30] = second compound 3.16 µM, first compound 10 µM
[31] = second compound 10 µM, first compound 0.0316 µM
[32] = second compound 10 µM, first compound 0.1 µM
[33] = second compound 10 µM, first compound 0.316 µM
[34] = second compound 10 µM, first compound 1 µM
[35] = second compound 10 µM, first compound 3.16 µM
[36] = second compound 10 µM, first compound 10 µM
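Note: spheroids exposed to compounds for one week before readout.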
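Throughout, for viability, T/C: percent viability relative to DMSO vehicle wells taken as 100%.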

SMILES: O=C(Nc1ccc(O)c(NS(=O)(=O)c2ccc(F)cc2)c1)c1ccc(-c2ccccc2)cc1 + COC1C(OC(N)=O)C(O)C(Oc2ccc3c(O)c(NC(=O)c4ccc(O)c(CC=C(C)C)c4)c(=O)oc3c2C)OC1(C)C
- IC50 (second compound 0.0316 µM): > 10 µM
- IC50 (second compound 0.1 µM): > 10 µM
- IC50 (second compound 0.316 µM): > 10 µM
- IC50 (second compound 1 µM): > 10 µM
- IC50 (second compound 3.16 µM): > 10 µM
- IC50 (second compound 10 µM): > 10 µM
- viability, T/C [1]: 103%
- viability, T/C [2]: 103%
- viability, T/C [3]: 104%
- viability, T/C [4]: 109%
- viability, T/C [5]: 118%
- viability, T/C [6]: 97.8%
- viability, T/C [7]: 102%
- viability, T/C [8]: 100%
- viability, T/C [9]: 103%
- viability, T/C [10]: 95.1%
- viability, T/C [11]: 99.6%
- viability, T/C [12]: 118%
- viability, T/C [13]: 101%
- viability, T/C [14]: 98.3%
- viability, T/C [15]: 91.3%
- viability, T/C [16]: 93.8%
- viability, T/C [17]: 106%
- viability, T/C [18]: 92.2%
- viability, T/C [19]: 105%
- viability, T/C [20]: 107%
- viability, T/C [21]: 101%
- viability, T/C [22]: 116%
- viability, T/C [23]: 101%
- viability, T/C [24]: 105%
- viability, T/C [25]: 102%
- viability, T/C [26]: 105%
- viability, T/C [27]: 100%
- viability, T/C [28]: 105%
- viability, T/C [29]: 107%
- viability, T/C [30]: 93.9%
- viability, T/C [31]: 108%
- viability, T/C [32]: 100%
- viability, T/C [33]: 98.5%
- viability, T/C [34]: 103%
- viability, T/C [35]: 107%
- viability, T/C [36]: 88.8%

SMILES: CC1COCCN1c1cc(C2(O)CC3CCC(C2)O3)c2cnn(-c3ccn[nH]3)c2n1 (stereo unspecified) + Cc1cccc(N(C)C(=O)C2C(O)CCN2c2nc(C)cc(C(F)(F)F)c2C#N)c1
- IC50 (second compound 0.0316 µM): 3.91 µM
- IC50 (second compound 0.1 µM): 2.95 µM
- IC50 (second compound 0.316 µM): 2.75 µM
- IC50 (second compound 1 µM): 3.78 µM
- IC50 (second compound 3.16 µM): 4.3 µM
- IC50 (second compound 10 µM): 1.4 µM
- viability, T/C [1]: 98.1%
- viability, T/C [2]: 102%
- viability, T/C [3]: 76.6%
- viability, T/C [4]: 65.3%
- viability, T/C [5]: 56.2%
- viability, T/C [6]: 38.9%
- viability, T/C [7]: 101%
- viability, T/C [8]: 99.1%
- viability, T/C [9]: 76.2%
- viability, T/C [10]: 71.7%
- viability, T/C [11]: 46.5%
- viability, T/C [12]: 33.6%
- viability, T/C [13]: 106%
- viability, T/C [14]: 103%
- viability, T/C [15]: 74.9%
- viability, T/C [16]: 61.4%
- viability, T/C [17]: 53.5%
- viability, T/C [18]: 33.6%
- viability, T/C [19]: 105%
- viability, T/C [20]: 94.7%
- viability, T/C [21]: 74.2%
- viability, T/C [22]: 70%
- viability, T/C [23]: 57.9%
- viability, T/C [24]: 33%
- viability, T/C [25]: 106%
- viability, T/C [26]: 92%
- viability, T/C [27]: 71.1%
- viability, T/C [28]: 71.8%
- viability, T/C [29]: 58.1%
- viability, T/C [30]: 36.6%
- viability, T/C [31]: 105%
- viability, T/C [32]: 94.6%
- viability, T/C [33]: 68.8%
- viability, T/C [34]: 53.4%
- viability, T/C [35]: 44%
- viability, T/C [36]: 30.8%

SMILES: CCCS(=O)(=O)Nc1ccc(F)c(C(=O)c2c[nH]c3ncc(-c4ccc(Cl)cc4)cc23)c1F + Nc1ccc(C#CCN(C(=O)Cc2ncc(C(F)(F)F)cc2C(F)(F)F)c2ccc(F)cc2)nn1
- IC50 (second compound 0.0316 µM): 6.35 µM
- IC50 (second compound 0.1 µM): 6.1 µM
- IC50 (second compound 0.316 µM): 6.23 µM
- IC50 (second compound 1 µM): 6.15 µM
- IC50 (second compound 3.16 µM): 6.14 µM
- IC50 (second compound 10 µM): 5.68 µM
- viability, T/C [1]: 107%
- viability, T/C [2]: 109%
- viability, T/C [3]: 105%
- viability, T/C [4]: 110%
- viability, T/C [5]: 114%
- viability, T/C [6]: 11.4%
- viability, T/C [7]: 107%
- viability, T/C [8]: 111%
- viability, T/C [9]: 110%
- viability, T/C [10]: 109%
- viability, T/C [11]: 101%
- viability, T/C [12]: 11.5%
- viability, T/C [13]: 101%
- viability, T/C [14]: 104%
- viability, T/C [15]: 106%
- viability, T/C [16]: 105%
- viability, T/C [17]: 102%
- viability, T/C [18]: 13.8%
- viability, T/C [19]: 112%
- viability, T/C [20]: 114%
- viability, T/C [21]: 101%
- viability, T/C [22]: 111%
- viability, T/C [23]: 102%
- viability, T/C [24]: 11.9%
- viability, T/C [25]: 111%
- viability, T/C [26]: 103%
- viability, T/C [27]: 107%
- viability, T/C [28]: 102%
- viability, T/C [29]: 100%
- viability, T/C [30]: 13%
- viability, T/C [31]: 109%
- viability, T/C [32]: 86.3%
- viability, T/C [33]: 101%
- viability, T/C [34]: 94.4%
- viability, T/C [35]: 92.3%
- viability, T/C [36]: 9.03%
